Assay results reported in ChEMBL document CHEMBL2380212, “Synthesis, single crystal and antitumor activities of benzimidazole-quinazoline hybrids” (Bioorg Med Chem Lett, 2013).

Experiments:
[1] = n-Octanol-phosphate buffer partition coefficient, log P of the compound at pH 7.4 by shake flask method; assay type: physicochemical
SF-268 = assay: Cytotoxicity against human SF268 cells at 10 uM after 48 hrs by SRB assay; assay type: functional; settings: SF-268, 48 h, read-out: GI
CCRF-CEM = assay: Cytotoxicity against human CCRF-CEM cells at 10 uM after 48 hrs by SRB assay; assay type: functional; settings: read-out: GI
LOX IMVI = assay: Cytotoxicity against human LOXIMVI cells at 10 uM after 48 hrs by SRB assay; assay type: functional; settings: read-out: GI
UO-31 = assay: Cytotoxicity against human UO31 cells at 10 uM after 48 hrs by SRB assay; assay type: functional; settings: UO-31, 48 h, read-out: GI
SF-295 = assay: Cytotoxicity against human SF295 cells at 10 uM after 48 hrs by SRB assay; assay type: functional; settings: SF-295, 48 h, read-out: GI
NCI-H322M = assay: Cytotoxicity against human NCI-H322M cells at 10 uM after 48 hrs by SRB assay; assay type: functional; settings: read-out: GI
SW-620 = assay: Cytotoxicity against human SW620 cells at 10 uM after 48 hrs by SRB assay; assay type: functional; settings: SW-620, 48 h, read-out: GI
UACC-257 = assay: Cytotoxicity against human UACC257 cells at 10 uM after 48 hrs by SRB assay; assay type: functional; settings: UACC-257, 48 h, read-out: GI
SK-MEL-2 = assay: Cytotoxicity against human SK-MEL-2 cells at 10 uM after 48 hrs by SRB assay; assay type: functional; settings: SK-MEL-2, 48 h, read-out: GI
NCI-H23 = assay: Cytotoxicity against human NCI-H23 cells at 10 uM after 48 hrs by SRB assay; assay type: functional; settings: NCI-H23, 48 h, read-out: GI
NCI-H226 = assay: Cytotoxicity against human NCI-H226 cells at 10 uM after 48 hrs by SRB assay; assay type: functional; settings: NCI-H226, 48 h, read-out: GI
PC-3 = assay: Cytotoxicity against human PC3 cells at 10 uM after 48 hrs by SRB assay; assay type: functional; settings: PC-3, 48 h, read-out: GI
HCT-15 = assay: Cytotoxicity against human HCT15 cells at 10 uM after 48 hrs by SRB assay; assay type: functional; settings: HCT-15, 48 h, read-out: GI
A549 = assay: Cytotoxicity against human A549 cells at 10 uM after 48 hrs by SRB assay; assay type: functional; settings: A549, 48 h, read-out: GI
SNB-75 = assay: Cytotoxicity against human SNB75 cells at 10 uM after 48 hrs by SRB assay; assay type: functional; settings: SNB-75, 48 h, read-out: GI
NCI-H460 = assay: Cytotoxicity against human NCI-H460 cells at 10 uM after 48 hrs by SRB assay; assay type: functional; settings: NCI-H460, 48 h, read-out: GI
CAKI-1 = assay: Cytotoxicity against human Caki1 cells at 10 uM after 48 hrs by SRB assay; assay type: functional; settings: CAKI-1, 48 h, read-out: GI
HL-60(TB) = assay: Cytotoxicity against human HL-60(TB) cells at 10 uM after 48 hrs by SRB assay; assay type: functional; settings: HL-60, 48 h, read-out: GI
MCF7 = assay: Cytotoxicity against human MCF7 cells at 10 uM after 48 hrs by SRB assay; assay type: functional; settings: MCF7, 48 h, read-out: GI
MOLT-4 = assay: Cytotoxicity against human MOLT4 cells at 10 uM after 48 hrs by SRB assay; assay type: functional; settings: MOLT-4, 48 h, read-out: GI
COLO 205 = assay: Cytotoxicity against human COLO205 cells at 10 uM after 48 hrs by SRB assay; assay type: functional; settings: COLO 205, 48 h, read-out: GI
MDA-MB-231 = assay: Cytotoxicity against human MDA-MB-231 cells at 10 uM after 48 hrs by SRB assay; assay type: functional; settings: MDA-MB-231, 48 h, read-out: GI
DU-145 = assay: Cytotoxicity against human DU145 cells at 10 uM after 48 hrs by SRB assay; assay type: functional; settings: DU-145, 48 h, read-out: GI
SR = assay: Cytotoxicity against human SR cells at 10 uM after 48 hrs by SRB assay; assay type: functional; settings: read-out: GI
HOP-62 = assay: Cytotoxicity against human HOP62 cells at 10 uM after 48 hrs by SRB assay; assay type: functional; settings: HOP-62, 48 h, read-out: GI
UACC-62 = assay: Cytotoxicity against human UACC62 cells at 10 uM after 48 hrs by SRB assay; assay type: functional; settings: UACC-62, 48 h, read-out: GI
KM12 = assay: Cytotoxicity against human KM12 cells at 10 uM after 48 hrs by SRB assay; assay type: functional; settings: KM12, 48 h, read-out: GI
HOP-92 = assay: Cytotoxicity against human HOP92 cells at 10 uM after 48 hrs by SRB assay; assay type: functional; settings: HOP-92, 48 h, read-out: GI
Malme-3M = assay: Cytotoxicity against human MALME-3M cells at 10 uM after 48 hrs by SRB assay; assay type: functional; settings: read-out: GI
OVCAR-4 = assay: Cytotoxicity against human OVCAR4 cells at 10 uM after 48 hrs by SRB assay; assay type: functional; settings: OVCAR-4, 48 h, read-out: GI
SN12C = assay: Cytotoxicity against human SN12C cells at 10 uM after 48 hrs by SRB assay; assay type: functional; settings: read-out: GI
HT-29 = assay: Cytotoxicity against human HT-29 cells at 10 uM after 48 hrs by SRB assay; assay type: functional; settings: HT-29, 48 h, read-out: GI
RPMI-8226 = assay: Cytotoxicity against human RPMI8226 cells at 10 uM after 48 hrs by SRB assay; assay type: functional; settings: RPMI-8226, 48 h, read-out: GI
ACHN = assay: Cytotoxicity against human ACHN cells at 10 uM after 48 hrs by SRB assay; assay type: functional; settings: read-out: GI
NCI-H522 = assay: Cytotoxicity against human NCI-H522 cells at 10 uM after 48 hrs by SRB assay; assay type: functional; settings: NCI-H522, 48 h, read-out: GI
U-251 = assay: Cytotoxicity against human U251 cells at 10 uM after 48 hrs by SRB assay; assay type: functional; settings: U-251, 48 h, read-out: GI
OVCAR-3 = assay: Cytotoxicity against human OVCAR3 cells at 10 uM after 48 hrs by SRB assay; assay type: functional; settings: OVCAR-3, 48 h, read-out: GI
SNB-19 = assay: Cytotoxicity against human SNB19 cells at 10 uM after 48 hrs by SRB assay; assay type: functional; settings: SNB-19, 48 h, read-out: GI
NCI/ADR-RES = assay: Cytotoxicity against human NCI/ADR-RES cells at 10 uM after 48 hrs by SRB assay; assay type: functional; settings: read-out: GI
BT-549 = assay: Cytotoxicity against human BT549 cells at 10 uM after 48 hrs by SRB assay; assay type: functional; settings: BT-549, 48 h, read-out: GI
T47D = assay: Cytotoxicity against human T47D cells at 10 uM after 48 hrs by SRB assay; assay type: functional; settings: read-out: GI
[2] = Cytotoxicity against human EKVX cells at 10 uM after 48 hrs by SRB assay; assay type: functional; settings: read-out: GI
TK-10 = assay: Cytotoxicity against human TK10 cells at 10 uM after 48 hrs by SRB assay; assay type: functional; settings: TK-10, 48 h, read-out: GI
IGROV-1 = assay: Cytotoxicity against human IGROV1 cells at 10 uM after 48 hrs by SRB assay; assay type: functional; settings: IGROV-1, 48 h, read-out: GI
HCT-116 = assay: Cytotoxicity against human HCT116 cells at 10 uM after 48 hrs by SRB assay; assay type: functional; settings: HCT-116, 48 h, read-out: GI
OVCAR-5 = assay: Cytotoxicity against human OVCAR5 cells at 10 uM after 48 hrs by SRB assay; assay type: functional; settings: OVCAR-5, 48 h, read-out: GI
K562 = assay: Cytotoxicity against human K562 cells at 10 uM after 48 hrs by SRB assay; assay type: functional; settings: K562, 48 h, read-out: GI
RXF 393 = assay: Cytotoxicity against human RXF393 cells at 10 uM after 48 hrs by SRB assay; assay type: functional; settings: RXF 393, 48 h, read-out: GI
MDA-MB-435 = assay: Cytotoxicity against human MDA-MB-435 cells at 10 uM after 48 hrs by SRB assay; assay type: functional; settings: MDA-MB-435, 48 h, read-out: GI
786-0 = assay: Cytotoxicity against human 786-0 cells at 10 uM after 48 hrs by SRB assay; assay type: functional; settings: 786-0, 48 h, read-out: GI
SK-MEL-5 = assay: Cytotoxicity against human SK-MEL-5 cells at 10 uM after 48 hrs by SRB assay; assay type: functional; settings: SK-MEL-5, 48 h, read-out: GI
SK-OV-3 = assay: Cytotoxicity against human SKOV3 cells at 10 uM after 48 hrs by SRB assay; assay type: functional; settings: SK-OV-3, 48 h, read-out: GI

C=CCn1c(C)nc2ccc(Nc3nc(N4CCCCC4)nc4ccccc34)cc21
logD [1]: 2.72

O=c1[nH]cc(F)c(=O)[nH]1 [FLUOROURACIL]
inhibition of growth at 10 µM (SF-268): 59%
inhibition of growth at 10 µM (CCRF-CEM): 57.1%
inhibition of growth at 10 µM (LOX IMVI): 30.4%
inhibition of growth at 10 µM (UO-31): 41.3%
inhibition of growth at 10 µM (SF-295): 69.1%
inhibition of growth at 10 µM (NCI-H322M): 59.5%
inhibition of growth at 10 µM (SW-620): 50.1%
inhibition of growth at 10 µM (UACC-257): 19.5%
inhibition of growth at 10 µM (SK-MEL-2): 95.5%
inhibition of growth at 10 µM (NCI-H23): 39%
inhibition of growth at 10 µM (NCI-H226): 69.5%
inhibition of growth at 10 µM (PC-3): 58.2%
inhibition of growth at 10 µM (HCT-15): 26.5%
inhibition of growth at 10 µM (A549): 34.2%
inhibition of growth at 10 µM (SNB-75): 65.9%
inhibition of growth at 10 µM (NCI-H460): 13%
inhibition of growth at 10 µM (CAKI-1): 39.4%
inhibition of growth at 10 µM (HL-60(TB)): 47.9%
inhibition of growth at 10 µM (MCF7): 11.5%
inhibition of growth at 10 µM (MOLT-4): 43.1%
inhibition of growth at 10 µM (COLO 205): 40.2%
inhibition of growth at 10 µM (MDA-MB-231): 78.1%
inhibition of growth at 10 µM (DU-145): 35.5%
inhibition of growth at 10 µM (SR): 24.8%
inhibition of growth at 10 µM (HOP-62): 47.8%
inhibition of growth at 10 µM (UACC-62): 39.7%
inhibition of growth at 10 µM (KM12): 40.7%
inhibition of growth at 10 µM (HOP-92): 50.6%
inhibition of growth at 10 µM (Malme-3M): 58.2%
inhibition of growth at 10 µM (OVCAR-4): 59.4%
inhibition of growth at 10 µM (SN12C): 54%
inhibition of growth at 10 µM (HT-29): 27.1%
inhibition of growth at 10 µM (RPMI-8226): 41.4%
inhibition of growth at 10 µM (ACHN): 39.3%
inhibition of growth at 10 µM (NCI-H522): 58%
inhibition of growth at 10 µM (U-251): 50.3%
inhibition of growth at 10 µM (OVCAR-3): 47.4%
inhibition of growth at 10 µM (SNB-19): 65.9%
inhibition of growth at 10 µM (NCI/ADR-RES): 47.6%
inhibition of growth at 10 µM (BT-549): 37.8%
inhibition of growth at 10 µM (T47D): 56.7%
inhibition of growth at 10 µM [2]: 58.4%
inhibition of growth at 10 µM (TK-10): 66.9%
inhibition of growth at 10 µM (IGROV-1): 51.2%
inhibition of growth at 10 µM (HCT-116): 17.8%
inhibition of growth at 10 µM (OVCAR-5): 44.3%
inhibition of growth at 10 µM (K562): 42.3%
inhibition of growth at 10 µM (RXF 393): 34.3%
inhibition of growth at 10 µM (MDA-MB-435): 36.6%
inhibition of growth at 10 µM (786-0): 48.7%
inhibition of growth at 10 µM (SK-MEL-5): 33.7%
inhibition of growth at 10 µM (SK-OV-3): 77.5%
